Results on 16 compounds are retold here after US20240383874A1, “BENZENE RING DERIVATIVE, AND COMPOSITION AND PHARMACEUTICAL USE THEREOF” (Xizang Haisco Pharmaceutical Co., Ltd., priority 2020, published 2024).

Where a name gives a salt, the structure may show the parent alone.

The test system of one test is 22RV1 cells. Nature of the test: Experiment 2 on inhibiting 22RV1 cell proliferation (7 days, CellTiter-Glo). The test is classed as cell-based. The following applies: 1% css-FBS phenol red-free medium, incubated with compound 7 days, read-out: IC50 values on proliferation inhibition of 22RV1 cells. Here is the method:
Prostate cancer cells 22RV1 were purchased from ATCC, the cell medium was RPMI 1640+10% FBS, and the cells were cultured in an incubator at 37° C. under 5% CO2. On day 1, the cells in an exponential phase were collected. With a 1% css-FBS phenol red-free medium, the cell suspension was adjusted to a corresponding concentration, plated at 2000 cells/well and incubated overnight. On day 2, compounds at different concentrations were added, and the plate was placed in the incubator and incubated for further 7 days. After the incubation was completed, according to operation instructions for a CellTiter-Glo kit (Promega, G7573), 50 μL of CTG solution, which was already pre-melted and equilibrated to room temperature, was added to each well, and the mixtures were uniformly mixed for 2 min using a microplate shaker. The plate was placed at room temperature for 10 min, and then fluorescence signal values were measured using a microplate reader (PHERAstar FSX). The results were processed according to formula (2), the survival rate of the compound at different concentrations was calculated, and the IC50 value of the compound with a survival rate of 50% was calculated using origin9.2 software with DoseResp function, wherein RLU compound was the readout of the treated group, and RLU control was the average value of the DMSO vehicle control group.
As for `CC(C)(c1ccc(OCc2ccnc(N3CCC4(CC3)CCN(C3CCN(CC5CCN(c6cccc7c6C(=O)N(C6CCC(=O)NC6=O)C7=O)CC5)CC3)CC4)n2)cc1)c1cc(Cl)c(OCCCl)c(C#N)c1` (stereo not shown) [Compound 28, 3-chloro-2-(2-chloroethoxy)-5-(2-(4-((2-(9-(1-((1-(2-(2,6-dioxopiperidin-3-yl)-1,3-dioxoisoindolin-4-yl)piperidin-4-yl)methyl)piperidin-4-yl)-3,9-diazaspiro[5.5]undecan-3-yl)pyrimidin-4-yl)methoxy)phenyl)propan-2-yl)benzonitrile], the IC50 worked out at 634 nM.

Take `CC(C)(c1ccc(OCc2ccnc(N3CCN(CC4CCN(CC5CCN(c6cccc7c6C(=O)N(C6CCC(=O)NC6=O)C7=O)CC5)CC4)CC3)n2)cc1)c1cc(Cl)c(OCCCl)c(C#N)c1` (stereo not shown) [Compound 14, 3-chloro-2-(2-chloroethoxy)-5-(2-(4-((2-(4-((1-((1-(2-(2,6-dioxopiperidin-3-yl)-1,3-dioxoisoindolin-4-yl)piperidin-4-yl)methyl)piperidin-4-yl)methyl)piperazin-1-yl)pyrimidin-4-yl)methoxy)phenyl)propan-2-yl)benzonitrile]: the IC50 came out at 628 nM.

With `Cn1c(=O)n(C2CCC(=O)NC2=O)c2cccc(CN3CC(N4CCC(N5CCC6(CC5)CN(c5nccc(COc7ccc(C(C)(C)c8cc(Cl)c(OCCCl)c(C#N)c8)cc7)n5)C6)CC4)C3)c21` (stereo not shown) [Compound 26, 3-chloro-2-(2-chloroethoxy)-5-(2-(4-((2-(7-(1-(1-((1-(2,6-dioxopiperidin-3-yl)-3-methyl-2-oxo-2,3-dihydro-1H-benzo[d]imidazol-4-yl)methyl)azetidin-3-yl)piperidin-4-yl)-2,7-diazaspiro[3.5]nonan-2-yl)pyrimidin-4-yl)methoxy)phenyl)propan-2-yl)benzonitrile], the IC50 came to 548 nM.

In the case of `CC(C)(c1ccc(OCc2ccnc(N3CC4(CCN(C5CCN(CC6CCN(c7cccc8c7C(=O)N(C7CCC(=O)NC7=O)C8=O)CC6)CC5)CC4)C3)n2)cc1)c1cc(Cl)c(OCCCl)c(C#N)c1` (stereo not shown) [Compound 25, 3-chloro-2-(2-chloroethoxy)-5-(2-(4-((2-(7-(1-((1-(2-(2,6-dioxopiperidin-3-yl)-1,3-dioxoisoindolin-4-yl)piperidin-4-yl)methyl)piperidin-4-yl)-2,7-diazaspiro[3.5]nonan-2-yl)pyrimidin-4-yl)methoxy)phenyl)propan-2-yl)benzonitrile], the IC50 turned out to be 542 nM.

As to `CC(C)(c1ccc(OCc2ccnc(N3C[C@@H]4CN(C5CCN(C6CN(c7ccc8c(c7)C(=O)N(C7CCC(=O)NC7=O)C8=O)C6)CC5)C[C@@H]4C3)n2)cc1)c1cc(Cl)c(OCCCl)c(C#N)c1` (stereo partly drawn) [Compound 17, 3-chloro-2-(2-chloroethoxy)-5-(2-(4-((2-((3aR,6aS)-5-(1-(1-(2-(2,6-dioxopiperidin-3-yl)-1,3-dioxoisoindolin-5-yl)azetidin-3-yl)piperidin-4-yl)hexahydropyrrolo[3,4-c]pyrrol-2(1H)-yl)pyrimidin-4-yl)methoxy)phenyl)propan-2-yl)benzonitrile], the IC50 was 1020 nM.

The test is the same for the next values; noted with them: Homo sapiens, 22Rv1, 168 h, 1% css-FBS phenol red-free medium, incubated with compound 7 days, read-out: IC50 values on proliferation inhibition of 22RV1 cells.
For `Cn1c(=O)n(C2CCC(=O)NC2=O)c2ccc(C3CCN(CC4CCN(C5CCN(c6nccc(COc7ccc(C(C)(C)c8cc(Cl)cc(C#N)c8)cc7)n6)CC5)CC4)CC3)cc21` (stereo not shown) [Compound 91 trifluoroacetate, 3-chloro-5-(2-(4-((2-(4-((4-(1-(2,6-dioxopiperidin-3-yl)-3-methyl-2-oxo-2,3-dihydro-1H-benzo[d]imidazol-5-yl)piperidin-1-yl)methyl)-[1,4′-bipiperidin]-1′-yl)pyrimidin-4-yl)methoxy)phenyl)propan-2-yl)benzonitrile], the IC50 worked out at 427 nM.

Take `CC(C)(c1ccc(OCc2ccnc(N3CC(N4CCC(CN5CCN(c6ccc7c(c6)C(=O)N(C6CCC(=O)NC6=O)C7=O)CC5)CC4)C3)n2)cc1)c1cc(Cl)cc(C#N)c1` (stereo not shown) [Compound 47 trifluoroacetate, 3-chloro-5-(2-(4-((2-(3-(4-((4-(2-(2,6-dioxopiperidin-3-yl)-1,3-dioxoisoindolin-5-yl)piperazin-1-yl)methyl)piperidin-1-yl)azetidin-1-yl)pyrimidin-4-yl)methoxy)phenyl)propan-2-yl)benzonitrile]: the IC50 was 724 nM.

For the compound `CC(C)(c1ccc(OCc2ccnc(N3CCN(CC4CCN(C5CCCN(c6ccc7c(c6)C(=O)N(C6CCC(=O)NC6=O)C7=O)C5)C4)CC3)n2)cc1)c1cc(Cl)cc(C#N)c1` (stereo not shown) [Compound 67 trifluoroacetate, 3-chloro-5-(2-(4-((2-(4-((1-(1-(2-(2,6-dioxopiperidin-3-yl)-1,3-dioxoisoindolin-5-yl)piperidin-3-yl)pyrrolidin-3-yl)methyl)piperazin-1-yl)pyrimidin-4-yl)methoxy)phenyl)propan-2-yl)benzonitrile], the IC50 came to 643 nM.

As to `CC(C)(c1ccc(OCc2ccnc(N3CC(N4CCC(CN5CCN(c6cccc7c6C(=O)N(C6CCC(=O)NC6=O)C7=O)CC5)CC4)C3)n2)cc1)c1cc(Cl)cc(C#N)c1` (stereo not shown) [Compound 48 trifluoroacetate, 3-chloro-5-(2-(4-((2-(3-(4-((4-(2-(2,6-dioxopiperidin-3-yl)-1,3-dioxoisoindolin-4-yl)piperazin-1-yl)methyl)piperidin-1-yl)azetidin-1-yl)pyrimidin-4-yl)methoxy)phenyl)propan-2-yl)benzonitrile], the IC50 amounted to 608 nM.

For `CC(C)(c1ccc(OCc2ccnc(N3CCC(N4CC(CN5CCN(c6cccc7c6C(=O)N(C6CCC(=O)NC6=O)C7=O)CC5)C4)CC3)n2)cc1)c1cc(Cl)cc(C#N)c1` (stereo not shown) [Compound 65 trifluoroacetate, 3-chloro-5-(2-(4-((2-(4-(3-((4-(2-(2,6-dioxopiperidin-3-yl)-1,3-dioxoisoindolin-4-yl)piperazin-1-yl)methyl)azetidin-1-yl)piperidin-1-yl)pyrimidin-4-yl)methoxy)phenyl)propan-2-yl)benzonitrile], the IC50 was 759 nM.

As to `Cn1c(=O)n(C2CCC(=O)NC2=O)c2ccc(N3CCC(C4CCN(C5CCN(c6nccc(COc7ccc(C(C)(C)c8cc(Cl)cc(C#N)c8)cc7)n6)CC5)CC4)CC3)cc21` (stereo not shown) [Compound 104 trifluoroacetate, 3-chloro-5-(2-(4-((2-(1″-(1-(2,6-dioxopiperidin-3-yl)-3-methyl-2-oxo-2,3-dihydro-1H-benzo[d]imidazol-5-yl)-[4,1′:4′,4″-terpiperidin]-1-yl)pyrimidin-4-yl)methoxy)phenyl)propan-2-yl)benzonitrile], the IC50 worked out at 664 nM.

As to `CC(C)(c1ccc(OCc2ccnc(N3CCC(CN4CCN(c5ccc6c(c5)C(=O)N(C5CCC(=O)NC5=O)C6=O)CC4)CC3)n2)cc1)c1cc(Cl)cc(C#N)c1` (stereo not shown) [Compound 41 trifluoroacetate, 3-chloro-5-(2-(4-((2-(4-((4-(2-(2,6-dioxopiperidin-3-yl)-1,3-dioxoisoindolin-5-yl)piperazin-1-yl)methyl)piperidin-1-yl)pyrimidin-4-yl)methoxy)phenyl)propan-2-yl)benzonitrile], the IC50 amounted to 633 nM.

Turning to `COc1c(Cl)cc(C(C)(C)c2ccc(OCc3ccnc(N4CCC5(CC4)CC(CN4CCC(c6ccc7c(c6)n(C)c(=O)n7C6CCC(=O)NC6=O)CC4)C5)n3)cc2)cc1C#N` (stereo not shown) [Compound 113 trifluoroacetate, 3-chloro-5-(2-(4-((2-(2-((4-(1-(2,6-dioxopiperidin-3-yl)-3-methyl-2-oxo-2,3-dihydro-1H-benzo[d]imidazol-5-yl)piperidin-1-yl)methyl)-7-azaspiro[3.5]nonan-7-yl)pyrimidin-4-yl)methoxy)phenyl)propan-2-yl)-2-methoxybenzonitrile], the IC50 was 419 nM.

Regarding `CC(C)(c1ccc(OCc2ccnc(N3CC4(CCN(CC5CN(c6ccc7c(c6)C(=O)N(C6CCC(=O)NC6=O)C7=O)C5)CC4)C3)n2)cc1)c1cc(Cl)cc(C#N)c1` (stereo not shown) [Compound 70 trifluoroacetate, 3-chloro-5-(2-(4-((2-(7-((1-(2-(2,6-dioxopiperidin-3-yl)-1,3-dioxoisoindolin-5-yl)azetidin-3-yl)methyl)-2,7-diazaspiro[3.5]nonan-2-yl)pyrimidin-4-yl)methoxy)phenyl)propan-2-yl)benzonitrile], the IC50 was determined as 612 nM.

On to `CC(C)(c1ccc(OCc2ccnc(N3CCC(N4CCC(CN5CCN(c6cccc7c6C(=O)N(C6CCC(=O)NC6=O)C7=O)CC5)CC4)CC3)n2)cc1)c1cc(Cl)cc(C#N)c1` (stereo not shown) [Compound 40 trifluoroacetate, 3-chloro-5-(2-(4-((2-(4-((4-(2-(2,6-dioxopiperidin-3-yl)-1,3-dioxoisoindolin-4-yl)piperazin-1-yl)methyl)-[1,4′-bipiperidin]-1′-yl)pyrimidin-4-yl)methoxy)phenyl)propan-2-yl)benzonitrile], for which the IC50 came to 764 nM.

Take `CC(C)(c1ccc(OCc2ccnc(N3CCN(C4CN(CC5CCN(c6ccc7c(c6)C(=O)N(C6CCC(=O)NC6=O)C7=O)C5)C4)CC3)n2)cc1)c1cc(Cl)cc(C#N)c1` (stereo not shown) [Compound 58 trifluoroacetate, 3-chloro-5-(2-(4-((2-(4-(1-((1-(2-(2,6-dioxopiperidin-3-yl)-1,3-dioxoisoindolin-5-yl)pyrrolidin-3-yl)methyl)azetidin-3-yl)piperazin-1-yl)pyrimidin-4-yl)methoxy)phenyl)propan-2-yl)benzonitrile]: the IC50 came to 744 nM.
